Reference: patent US12409184B2, “Iloprost compositions and formulations thereof” (BTG INTERNATIONAL INC., priority 2020, dated 2025)
Several values for one entry are separate records, joined by “and”; a condition that tells them apart may be missing. Equal values may be shown once.

Assays:
[1] = Example 3 solution stability of fully diluted ready-to-use iloprost in IV bags (HPLC); assay type: physicochemical
Description: Iloprost 100 μg/mL injection product is administered to patients by IV bag infusion over a period of six hours. The fully diluted ready to use iloprost is prepared in pharmacy cleanroom using sterile preparation standards (USP Chapter <797>) by pharmacy trained and licensed staff. The fully diluted ready to use drug product may be prepared several hours ahead of treatment with storage at ambient conditions or several days ahead of treatment with storage at refrigerated (2-8° C.) conditions. The IV bags are prepared using empty sterile IV bags which are filled with 99 mL of 0.9% NaCl and 1.0 mL of iloprost 100 µg/mL injection product. The bags are then manually mixed gently to provide a uniform solution. […] IV Bag Sample Preparation: Two 50 mL syringes with 18-gauge needles were assembled. 1.0 mL syringe with 18-gauge needle was assembled. Using a 50 mL syringe, 50 mL of 0.9% NaCl was transferred into an empty IV bag (sterile, ICU Medical) using the injection port. Using a second 50 mL syringe, 49 mL of 0.9% NaCl was transferred into the same IV bag using the injection port resulting in 99 mL of solution. Using the 1 ml syringe, 1.0 mL of iloprost 100 μg/mL injection product was transferred into the IV bag using the injection port. The needle was removed and the port was securely closed. The IV bag was gently inverted several times to mix. During inversion, it was occasionally paused to squeeze the injection port area to ensure liquid rinsed into area several times. Sampling Procedure: For sampling, a 3 mL syringe was assembled with an 18-gauge needle. Using a 3 ml syringe, 2 mL of IV bag solution was withdrew through the injection port and 1 mL was transferred to a HPLC vial for neat injection and the other 1 ml was transferred to a back-up HPLC vial. HPLC vials were stored at refrigerated conditions 2-8° C. Sample Storage and Sampling: For each testing conditions (i-iv discussed above), 12 IV bag samples were prepared (6 IV bags for condition ia)-see below for sampling time). For condition i), all 12 IV bags were then placed into 25° C./60% RH stability chamber ensuring each bag is resting on its largest surface area side. After the first time point, the IV bags were removed from the chamber and each IV bag was mixed by inversion several times. Sampling from each IV bag was taken for HPLC analysis. After sampling, the IV bags were placed back into 25° C./60% RH stability chamber ensuring each bag is resting on its largest surface area side, until next sampling time. At each sampling time, the IV bags were removed from the chamber and each IV bag was mixed by inversion several times before samples were removed. For conditions ii) and iii), all 12 IV bags for each testing condition was placed into a 2-8° C. stability chamber ensuring each bag is resting on its largest surface area side. After 5 days have passed for condition ii) or after 8 days have passed for condition iii), the IV bags were removed from the chamber and allowed to equilibrate to room temperature. Each IV bag was mixed by inversion several times. Sampling from each IV bag was taken for HPLC analysis. Then the IV bags were placed in the 25° C./60% RH stability chamber and sampled at certain time points as discussed herein. […]

[2] = Example 1 safety and tolerability (adverse events, vital signs, ECG, laboratory); assay type: in vivo, human
Description: On Day 1, study drug was initiated at a starting dose of 0.5 ng/kg/min, and dose increases occurred every 30 minutes (+5 minutes) in increments of 0.5 ng/kg/min up to 2.0 ng/kg/min or the individual tolerated dose. If dose-limiting adverse events (e.g., headache, flushing, jaw pain, myalgia, nausea, or vomiting) occurred that could not be tolerated by the subject, or if the subject experienced symptomatic hypotension, then the dose was reduced in a step-wise manner by 0.5 ng/kg/min every 30 minutes (+5 minutes) until a tolerated dose was determined or the infusion was stopped until the symptoms resolved at which point the study drug was reinitiated at a previously tolerated dose. If symptomatic hypotension or a dose-limiting adverse event occurred during administration of iloprost at the starting dose (i.e., 0.5 ng/kg/min), the infusion was reduced to 0.25 ng/kg/min. If the dose of 0.25 ng/kg/min was not tolerated due to symptomatic hypotension or if a dose-limiting adverse event occurred, the study drug was discontinued, and re-initiation of the infusion could have been attempted after the event had resolved or had been treated. Blood pressure and heart rate were monitored 15 minutes (+5 minutes) prior to and after all dose changes. The maximum tolerated dose was maintained for the remaining 6-hour daily period. At the end of the 6-hour infusion period, the dose was stopped. Subjects were to be monitored for up to 1 hour after completion of study drug infusion (i.e., vital signs were obtained 15 minutes [±5 minutes] and 1 hour [±15 minutes] after completion of the infusion).
Vital signs were measured prior to study drug administration and at 15 minutes (±5 minutes) prior to and after all dose changes during the infusion. Additionally, vital signs were monitored at 15 minutes (±5 minutes) and 1 hour (±15 minutes) after completion of the 6-hour infusion.
Safety parameters included adverse events, physical examination findings, vital sign measurements (heart rate and blood pressure), 12-lead electrocardiogram (ECG) findings, and standard clinical laboratory measurements (chemistry and hematology).

[3] = Table 8A, IV bag 25° C./60% RH, 2 h
[4] = Table 8A, IV bag 25° C./60% RH, 4 h
[5] = Table 8A, IV bag 25° C./60% RH, 6 h
[6] = Table 8A, IV bag 25° C./60% RH, 8 h
[7] = Table 8A, IV bag 25° C./60% RH, 24 h
[8] = Table 8B, Batch 1, 25° C./60% RH, 8 hr
[9] = Table 8B, Batch 1, 25° C./60% RH, 12 hr
[10] = Table 8B, Batch 1, 25° C./60% RH, 48 hr
[11] = Table 8B, Batch 1, 25° C./60% RH, 96 hr
[12] = Table 8C, Batch 2, 25° C./60% RH, 8 hr
[13] = Table 8C, Batch 2, 25° C./60% RH, 12 hr
[14] = Table 8C, Batch 2, 25° C./60% RH, 48 hr
[15] = Table 8C, Batch 2, 25° C./60% RH, 96 hr
[16] = Table 8D, Batch 1, 5° C. for 5 days
[17] = Table 8D, Batch 1, 5° C. for 5 days, 25° C./60% RH for 8 hr
[18] = Table 8D, Batch 1, 5° C. for 5 days, 25° C./60% RH for 12 hr
[19] = Table 8E, Batch 2, 5° C. for 5 days
[20] = Table 8E, Batch 2, 5° C. for 5 days, 25° C./60% RH for 8 hr
[21] = Table 8E, Batch 2, 5° C. for 5 days, 25° C./60% for 12 hr

SMILES: CC#CCC(C)[C@H](O)/C=C/[C@@H]1[C@H]2C/C(=C/CCCC(=O)O)C[C@H]2C[C@H]1O (stereo partly drawn) [Iloprost, (5E)-5-[(3aS,4R,5R,6aS)-5-hydroxy-4-[(E,3S)-3-hydroxy-4-methyloct-1-en-6-ynyl]-3,3a,4,5,6,6a-hexahydro-1H-pentalen-2-ylidene]pentanoic acid]
- % Initial [1, 3]: 100.8% and 99.4% and 100.2% and 99.7% and 100.5% and 100.4%
- Iloprost (%) [1, 3]: 95.0% and 94.2% and 94.8% and 94.7% and 95.3%
- % Initial [1, 4]: 101.0% and 99.5% and 99.6% and 100.3% and 101.3% and 101.9%
- Iloprost (%) [1, 4]: 95.2% and 94.3% and 94.7% and 95.5% and 96.7%
- % Initial [1, 5]: 101.6% and 100.2% and 100.5% and 99.3% and 101.7% and 100.6%
- Iloprost (%) [1, 5]: 95.7% and 95.0% and 95.1% and 93.7% and 95.9% and 95.4%
- % Initial [1, 6]: 100.0% and 101.9% and 101.1% and 99.9%
- Iloprost (%) [1, 6]: 94.3% and 94.8% and 94.6% and 96.2% and 95.3%
- % Initial [1, 7]: 102.2% and 101.4% and 102.0% and 100.1% and 98.9% and 100.5%
- Iloprost (%) [1, 7]: 97.0% and 95.5% and 96.7% and 94.7% and 93.4% and 94.8%
- Iloprost (%) ([1]; Table 8A, IV bag, 1.0 mL 100 μg/mL product + 99 mL 0.9% NaCl, Initial, Samples 1-6): 94.2% and 94.8% and 94.6% and 94.4% and 94.3% and 94.9%
- % Initial [1, 8]: 100% and 104% and 101% and 103%
- Iloprost [1, 8]: 973.6 ng/mL and 1010 ng/mL and 979.5 ng/mL and 1003 ng/mL and 977.2 ng/mL and 1007 ng/mL
- % Initial [1, 9]: 103% and 104% and 105% and 99%
- Iloprost [1, 9]: 1004 ng/mL and 1009 ng/mL and 978.2 ng/mL and 1042 ng/mL and 975.1 ng/mL and 1005 ng/mL
- % Initial [1, 10]: 103% and 101% and 100%
- Iloprost [1, 10]: 1004 ng/mL and 995.2 ng/mL and 968 ng/mL and 1001 ng/mL and 984.6 ng/mL and 977.3 ng/mL
- % Initial [1, 11]: 104% and 105% and 103% and 102% and 101% and 100%
- Iloprost [1, 11]: 1013 ng/mL and 1017 ng/mL and 970.9 ng/mL and 1014 ng/mL and 994.1 ng/mL and 971.5 ng/mL
- Iloprost ([1]; Table 8B, Batch 1, IV bag, Initial (T = 0), Preparations 1-6): 975.8 ng/mL and 977.5 ng/mL and 968.7 ng/mL and 942.8 ng/mL and 994.1 ng/mL and 981.9 ng/mL
- % Initial [1, 12]: 102% and 101% and 100% and 96%
- Iloprost [1, 12]: 995.8 ng/mL and 1002 ng/mL and 994.6 ng/mL and 1004 ng/mL and 998.8 ng/mL and 983.3 ng/mL
- % Initial [1, 13]: 101% and 99% and 100% and 98%
- Iloprost [1, 13]: 993.3 ng/mL and 984.1 ng/mL (2×) and 989.6 ng/mL and 994.8 ng/mL and 1005 ng/mL
- % Initial [1, 14]: 101% and 99% and 104% and 100%
- Iloprost [1, 14]: 993.7 ng/mL and 984.2 ng/mL and 994.4 ng/mL and 1032 ng/mL and 1005 ng/mL and 1015 ng/mL
- % Initial [1, 15]: 102% and 99% and 101% and 100%
- Iloprost [1, 15]: 1002 ng/mL and 979.5 ng/mL and 989 ng/mL and 1005 ng/mL and 996.3 ng/mL and 1027 ng/mL
- Iloprost ([1]; Table 8C, Batch 2, IV bag, Initial (T = 0), Preparations 1-6): 1021 ng/mL and 980.9 ng/mL and 990.7 ng/mL and 980.7 ng/mL and 994.4 ng/mL and 1001 ng/mL
- % Initial [1, 16]: 104% and 98% and 101% and 100% and 99%
- Iloprost [1, 16]: 1050 ng/mL and 931.9 ng/mL and 1024 ng/mL (2×) and 1020 ng/mL and 1001 ng/mL
- % Initial [1, 17]: 99% and 100% and 98% and 102% and 101%
- Iloprost [1, 17]: 1002 ng/mL and 957.3 ng/mL and 993.8 ng/mL and 1040 ng/mL and 1025 ng/mL and 1011 ng/mL
- % Initial [1, 18]: 97% and 99% and 100% and 101%
- Iloprost [1, 18]: 976.5 ng/mL and 943.2 ng/mL and 1015 ng/mL and 1031 ng/mL and 1010 ng/mL and 982.7 ng/mL
- Iloprost ([1]; Table 8D, Batch 1, IV bag, Initial (T = 0)): 996.6 ng/mL and 1007 ng/mL and 953.6 ng/mL and 1015 ng/mL and 1020 ng/mL and 1036 ng/mL
- % Initial [1, 19]: 102% and 100% and 101%
- Iloprost [1, 19]: 1026 ng/mL and 1009 ng/mL and 1025 ng/mL and 1030 ng/mL and 1011 ng/mL and 987.4 ng/mL
- % Initial [1, 20]: 101% and 99% and 100% and 98%
- Iloprost [1, 20]: 1023 ng/mL and 973.1 ng/mL and 1013 ng/mL and 1012 ng/mL and 996.7 ng/mL and 970.8 ng/mL
- % Initial [1, 21]: 101% and 98% and 102% and 100%
- Iloprost [1, 21]: 1022 ng/mL and 963.3 ng/mL and 1001 ng/mL
- Iloprost ([1]; Table 8E, Batch 2, IV bag, Initial (T = 0)): 988.4 ng/mL
- % Initial ([1]; Table 8F (5° C. for 8 days to 25° C./60% RH), Batch 1, time point 5° C. for 5 days [sic]): 103% and 99% and 102% and 100%
- % Initial ([1]; Table 8F, Batch 1, 5° C. for 8 days, 25° C./60% RH for 8 hr): 99% and 98% and 107% and 100%
- % Initial ([1]; Table 8F, Batch 1, 5° C. for 8 days, 25° C./60% RH for 12 hr): 101% and 100% and 99%
- % Initial ([1]; Table 8G (5° C. for 8 days to 25° C./60% RH), Batch 2, time point 5° C. for 5 days [sic]): 99% and 97% and 102%
- TEAE abdominal pain ([2]; human, in vivo, 5 days): 4 [23.5%] subjects (%)
- TEAE flushing ([2]; human, in vivo, 5 days): 5 [29.4%] subjects (%)
- TEAE headache ([2]; human, in vivo, 5 days): 16 [94.1%] subjects (%)
- TEAE nausea ([2]; human, in vivo, 5 days): 11 [64.7%] subjects (%)
- subjects who experienced TEAEs considered severe by the Investigator ([2]; human, in vivo, 5 days): Two (11.8%) subjects (%)
- subjects who experienced a TEAE ([2]; human, in vivo, 5 days): 17 (100.0%) subjects (%)
- TEAEs related to vital signs, physical examination findings, or ECGs ([2]; in vivo): no TEAEs
- bradycardia or tachycardia ([2]; in vivo): no bradycardia or tachycardia
- changes in chemistry or hematology laboratory values ([2]; in vivo): no clinically significant changes
- hypertensive or hypotensive events ([2]; in vivo): no hypertensive or hypotensive events
- deaths, SAEs, AESIs, TEAEs leading to study drug discontinuation ([2]; whole study): no deaths, SAEs, AESIs, or TEAEs leading to study drug discontinuation
